Patent US12589143B2, “Human anti-PD-L1 peptide vaccines and methods of their use” (priority 2019, dated 2026)
Where no end group is shown, it is not given here.

Tested on: CT26 colon carcinoma cell line
Assay: CT26 WT tumor challenge in immunized Balb/c mice
Type: in vivo
Settings: for tumor inhibition versus PBS: Balb/c; for average tumor growth inhibition: day 14 and 16
Description: FIGS. 5A, 5B, 5C, and 5D show the experimental scheme to test the immunization with PD-L1 in Balb/c mice. […] Balb/c mice 6-8 weeks old, were immunized with MVF-peptide immunogens emulsified in ISA 720 with nor-MDP three times and three weeks apart. Mice were immunized with MVF-PD-L1 vaccine constructs [PD-L1(36-53), PD-L1(50-67), PD-L1(95-112), PD-L1(130-147)] prior to tumor challenge. Blood was collected weekly and sera tested for antibody titers by ELISA. Two weeks after the third immunization (3Y), the mice were engrafted with CT26 WT tumor cells 10^5 per mouse Control mice were treated twice weekly with PBS as negative control and twice weekly with anti-mPD-L1 mAb (10F.9G2) as positive control starting 2 days after tumor challenge. Tumor growths were observed twice weekly and measured by calipers.
The peptide vaccines were dissolved in water and emulsified in Montanide ISA 720 (1:1) and 100 μg nor-MDP (N-acetylglucosamine-3yl-acetyl-1-alanyl-d-isoglutamine). Female Balb/c mice (Charles River Laboratories) at the age of 5 to 6 weeks were immunized three times at 3-week intervals with 100 μg peptide vaccine, and 15 days after the third immunization, the mice were challenged s.c. with CT-26 tumor cells (100,000 per mouse). Mice immunized with an irrelevant MVF peptide chimera were used as a negative control.
Mice treated twice a week with anti-mouse PD-L1 MAb (Bio X Cell, West Lebanon, NH) 200 ug/dose was used as a positive control. Tumor growth was monitored for up to 18 days after challenge. During immunization, blood was drawn biweekly and used in ELISA to monitor Ab titers. The mice were euthanized at the end of treatment and tumors extracted and weighed samples of the tumors were saved for further study and for histological examination. The spleens were also collected for further examination.
Two weeks after the third immunization (3Y), the mice were inoculated subcutaneously (s.c) with CT26 carcinoma cells (1×10^5 cells per mouse) and tumor formation was monitored on a daily basis afterwards. Mice treated with PBS served as negative control, and twice weekly treated mice with 200 μg/dose injections of anti-mouse PD-L1 monoclonal antibody (mAb clone 10F.9G2) served as positive control. Tumor growth was monitored daily and measured by caliper. […] PD-L1 B-cell epitope vaccines treatment had similar and significant reduction in tumor growth at day 16 post challenge as compared to negative control treatment with PBS (FIG. 9).
6-8 weeks old BALB/c mice (Charles River, Wilmington, MA) were used as standard animal models. Mouse CT26 colon carcinoma cell line was purchased from American Type Culture Collection Cells and were regularly cultured in RPMI1640 medium containing 10% FBS. CT26/HER2 cells were kindly provided by M. Penichet. Vaccines were dissolved in sterile water and emulsified in Montanide ISA 720 (1:1). Female Balb/c mice (Charles River Laboratories) at the age of 6-8 weeks were immunized three times at 3-week intervals with 100 μg of each peptide vaccine, and 2 weeks after the third immunization, the mice were challenged with CT26 and/or CT26/HER-2 tumor cells, which were implanted subcutaneously (s.c) on the right flank (1×10^5 per mouse). 200 μg of rat α-mouse PD-L1 mAb 10F.9G2 (Bio X Cell, West Lebanon, NH) were administered intraperitoneally (i.p.), twice weekly following tumor inoculation in the control group. Mice were monitored and scored for the formation of palpable tumors on a daily basis and sacrificed if tumors became necrotic or exceeded the predetermined size of 2,000 mm^3. Tumor volumes were measured in cubic millimeters with calipers and calculated with the following formula: A×B^2×0.5, where A is the largest diameter, and B is the widest point perpendicular to length. During immunization, blood was drawn weekly and used in ELISA to monitor antibody titers.
Tumor sizes were observed daily and measured by caliper. Tumor volumes were calculated by formula: Volume=(Length*Width*Width)/2. […]

| Sequence | levels of lesions | percentage of tumor growth inhibition compared to negative control | tumor inhibition versus PBS | survival rate (Kaplan-Meier method) | average tumor growth inhibition |
| --- | --- | --- | --- | --- | --- |
| KLLSLIKGVIVHRLEGVEGPSLVTSEHELTCQAEGYPKAE (KLLSLIKGVIVHRLEGVEGPSLVTSEHELTCQAEGYPKAE-NH2) [PD-L1(130)] | lowest levels of lesions | Significant higher percentage of tumor growth inhibition | significant inhibition of tumor growth | highest survival rate | strongest average tumor growth inhibition |
| KLLSLIKGVIVHRLEGVEGPSLFVHGEEDLKVQHSSYRQR (KLLSLIKGVIVHRLEGVEGPSLFVHGEEDLKVQHSSYRQR-NH2) [PD-L1(50)] | – | – | significant inhibition of tumor growth | – | strongest average tumor growth inhibition |
| KLLSLIKGVIVHRLEGVEGPSLLIVYWEMEDKNIIQFVHG (KLLSLIKGVIVHRLEGVEGPSLLIVYWEMEDKNIIQFVHG-NH2) [PD-L1(36)] | – | – | – | – | strongest average tumor growth inhibition |
